# Like-named read-outs stand apart in the source and are kept apart here.
# Key:
# hsMTHFD2 [1] = biological target: T1, hsMTHFD2 (Homo sapiens, UniProt P13995); test: hsMTHFD2 dehydrogenase (DH) enzyme assay; format: biochemical
# T1 construct: His-tag (vector pHis-TEV) (cleaved yes); made in house; host or cells: E. coli BL21 (DE3)
# T1 sequence (P13995 36-350): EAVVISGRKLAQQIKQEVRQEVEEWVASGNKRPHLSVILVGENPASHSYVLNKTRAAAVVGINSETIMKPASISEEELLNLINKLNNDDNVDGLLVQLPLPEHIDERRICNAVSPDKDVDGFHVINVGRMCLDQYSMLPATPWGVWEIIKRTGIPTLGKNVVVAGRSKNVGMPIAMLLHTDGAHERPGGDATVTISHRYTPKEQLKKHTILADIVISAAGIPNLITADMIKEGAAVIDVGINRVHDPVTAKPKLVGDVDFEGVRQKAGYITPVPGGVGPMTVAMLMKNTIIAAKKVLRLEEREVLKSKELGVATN
# Method: (6R,S)-5,10-Methylene-5,6,7,8-tetrahydrofolic acid ((6R,S)-5,10-CH2-THF) calcium salt and (6R,S)-5,10-Methenyl-5,6,7,8-tetrahydrofolic acid ((6R,S)-5,10-CH=THF) chloride were purchased from Schircks Laboratories (Bauma, Switzerland) and used as substrates for FolD dehydrogenase and cyclohydrolase enzyme assays, respectively. Only the R-isomer, which accounts for 50% of (6R,S)-5,10-CH2-THF and (6R,S)-5,10-CH=THF, respectively, is used by the enzyme. (6R,S)-5,10-CH2-THF was dissolved in N2-spargeled basic buffer (50 mM Tris-HCl (pH 8.0), 100 mM β-mercaptoethanol) as described by Varshney et al.[25]. (6R,S)-5,10-CH=THF was dissolved in DMSO as a 100 mM stock solution.
# Because FolD is a bifunctional enzyme, dehydrogenase and cyclohydrolase activities were determined for FolD enzyme kinetics, respectively. The dehydrogenase activity of FolD was assayed for its substrate 5,10-CH2-THF and cofactor NADP^+ (in the case of MTHFD2, NAD^+ was used as the cofactor) based on monitoring the formation of 5,10-CH=THF, while the cyclohydrolase activity of FolD was determined for its substrate 5,10-CH=THF by monitoring the hydrolysis of […]. The enzyme kinetics for the dehydrogenase activity of all FolDs except hsMTHFD1_DC were determined at 30 °C in 50 mM Tris-HCl (pH 7.5), 30 mM β-mercaptoethanol. The hsMTHFD1_DC dehydrogenase activity was measured in 25 mM MOPS (pH 7.3), 30 mM β-mercaptoethanol at 30 °C. To measure the enzyme kinetic constants for 5,10-CH2-THF, for example in the case of ecFolD, the NADP concentration was fixed at 1 mM and the concentration of 5,10-CH2-THF varied from 5 to 1500 μM (R-isomer). Similarly, to measure the kinetic constants of ecFolD for NADP^+, the concentration of 5,10-CH2-THF (R-isomer) was fixed at 1 mM and the concentration of NADP^+ varied from 10 to 1500 μM. For different FolDs, the varied concentration range of substrates could be different. […] To monitor the formation of 5,10-CH=THF, the absorbance of the reaction mixture was monitored at 350 nm in micro UV cuvettes (BRAND, Essex, Connecticut, USA). The concentration of 5,10-CH=THF produced in the reaction was determined using an extinction co-efficient of 0.0249 μM^−1 cm^−1. […] The consumption of 5,10-CH=THF was measured by recording the absorbance of the reactions at 355 nm using the TECAN Infinite 200 PRO equipped with a monochromator. […] The inhibition constants (K i) of carolacton on FolD were determined by measuring the apparent K m when adding certain amounts of carolacton to the enzyme reactions. […] To compare the inhibition effects of carolacton between the different FolDs, the half maximal inhibitory concentration (IC50) of carolacton on the same amount of enzyme was determined for FolDs involved in this study. […]
# hsMTHFD2 [2] = biological target: T1, hsMTHFD2; test: SPR binding to hsMTHFD2
# Method: All surface plasmon resonance (SPR) experiments described in this study were performed on a Biacore X100 system. Different FolDs with or without His-tag were coupled on CM5 sensor chips (GE Healthcare) by the amine coupling method using a kit from GE Healthcare Life Sciences (Freiburg, Germany). A pH scouting process was performed before protein immobilization to test the most appropriate buffer and the protein concentration for protein coupling. Finally, 20 μg/mL of ecFolD in 10 mM maleate buffer (pH 6.8), 30 μg/mL of ecFolD Q98H in 10 mM maleate buffer (pH 6.3), 40 μg/mL of ecFolD K54N in 10 mM maleate buffer (pH 5.8), 20 μg/mL of spFolD in 10 mM maleate buffer (pH 6.0) and 15 μg/mL of MTHFD2 (His-tag cleaved) in 10 mM maleate buffer (pH 6.8) were used for coupling. In the protein immobilization procedure, the contact time was calculated based on the pH scouting results to achieve ~3000–5000 relative resonance units (RU). The buffer used in the SPR assays was 1× HBS-P buffer (10 mM HEPES pH 7.4, 150 mM NaCl, 0.05% Tween 20). The 1 mM stock solution of carolacton was prepared in 1× HBS-P buffer and diluted to different concentration ranges by two-fold serial dilution. In the SPR assay, the association time was 180 s and the dissociation time was 600 s. Data analysis was performed using the Biacore evaluation software. […]
compound,measurement,setting,value
CO[C@H](CC(=O)O)[C@@H](C)C(=O)[C@H](C)/C=C(\C)[C@H]1OC(=O)[C@H](O)[C@H](O)/C=C/[C@H](C)CCC[C@@H]1C [carolacton],IC50,"hsMTHFD2 [1]; 10 nM enzyme, read-out: IC50, carolacton inhibition on DH activity",6.5 nM
same,IC80,"hsMTHFD2 [1]; 10 nM enzyme, read-out: IC80, carolacton inhibition on DH activity",31.7 nM
same,Ki,"hsMTHFD2 [1]; cofactor is NAD+ in the case of hsMTHFD2, read-out: Ki (NADP+), carolacton inhibition on DH activity",16.7 nM
same,Ki,"hsMTHFD2 [1]; vs 5,10-CH2-THF, read-out: Ki (5,10-CH2-THF), carolacton inhibition on DH activity",6.42 nM
same,koff,hsMTHFD2 [2],0.0222 s⁻¹
same,Kd,hsMTHFD2 [2]; 1:1 interaction model fit of association and dissociation signals,19 nM
